Reference: patent US20070105940A1, “Method for treating pain” (ALLERGAN, INC., priority 2005, published 2007)
Like-named read-outs stand apart in the source and are kept apart here.

How the values were obtained:
[1] = tested on: chronic constrictory injury (CCI) of the sciatic nerve; assay: CCI neuropathic pain, mechanical allodynia (Dynamic Plantar Anaesthesiometer, paw withdrawal threshold); type: in vivo, rat; conditions: CCI rats, i.p. for 7 days; AA-5-HT 5 mg/kg, URB-597 3 mg/kg; FIG. 3
Description: (§1) Neuropathic pain was induced by chronic constrictory injury (CCI) of the sciatic nerve. Rats were anaesthetized with sodium pentobarbital (60 mg/kg i.p.), the right sciatic nerve was exposed and four ligatures were loosely tied around the nerve just proximal to the trifurcation. Control rats underwent a sham surgery with exposure of the sciatic nerve without ligature.
(§2) Changes in thermal and mechanical nociceptive responses have been evaluated using a Plantar Test Apparatus and Dynamic Plantar Anaesthesiometer (Ugo Basile, Varese, Italy). Thermal paw withdrawal latency and mechanical paw withdrawal threshold (PWL and PWT) were measured (in sec and grams, respectively) for each group of rats every 30 min for 3 h.

[2] = tested on: fatty acid amide hydrolase (FAAH); assay: FAAH inhibition in vitro; type: biochemical
Source text: Similar results were obtained with other congeners, provided that at least one double bond was present in the acyl chain.

[3] = tested on: chronic constrictory injury (CCI) of the sciatic nerve; assay: CCI neuropathic pain, thermal nociceptive response (Plantar Test, paw withdrawal latency); type: in vivo, rat; conditions: CCI rats, i.p. for 7 days; AA-5-HT 5 mg/kg, URB-597 3 mg/kg; FIG. 4
Description: as §1, §2

[4] = tested on: OFF cells of the rostral ventromedial medulla; assay: Inhibitory effect of formalin on OFF cells of the rostral ventromedial medulla; type: in vivo, rat; conditions: FIG. 2B
[5] = tested on: nociceptive response to formalin injected into the rat paw; assay: Nociceptive response to formalin injected into the rat paw; type: in vivo
[6] = tested on: anandamide levels; assay: Anandamide levels in the periaqueductal grey after intra-PAG injection; type: in vivo; conditions: 4 μg/rat intra-PAG, measured 20 min following injection
[7] = target: T1, TRPV1 channels (Homo sapiens, UniProt Q8NER1); assay: Blocking of TRPV1 channel activation by capsaicin; type: cell-based; conditions: capsaicin 100 nM; FIG. 1A; read-out: IC50 against capsaicin
[8] = target: T1, TRPV1 channels; conditions: read-out: IC50 against capsaicin, previously reported; cited from earlier work

T1 sequence (Q8NER1 whole entry): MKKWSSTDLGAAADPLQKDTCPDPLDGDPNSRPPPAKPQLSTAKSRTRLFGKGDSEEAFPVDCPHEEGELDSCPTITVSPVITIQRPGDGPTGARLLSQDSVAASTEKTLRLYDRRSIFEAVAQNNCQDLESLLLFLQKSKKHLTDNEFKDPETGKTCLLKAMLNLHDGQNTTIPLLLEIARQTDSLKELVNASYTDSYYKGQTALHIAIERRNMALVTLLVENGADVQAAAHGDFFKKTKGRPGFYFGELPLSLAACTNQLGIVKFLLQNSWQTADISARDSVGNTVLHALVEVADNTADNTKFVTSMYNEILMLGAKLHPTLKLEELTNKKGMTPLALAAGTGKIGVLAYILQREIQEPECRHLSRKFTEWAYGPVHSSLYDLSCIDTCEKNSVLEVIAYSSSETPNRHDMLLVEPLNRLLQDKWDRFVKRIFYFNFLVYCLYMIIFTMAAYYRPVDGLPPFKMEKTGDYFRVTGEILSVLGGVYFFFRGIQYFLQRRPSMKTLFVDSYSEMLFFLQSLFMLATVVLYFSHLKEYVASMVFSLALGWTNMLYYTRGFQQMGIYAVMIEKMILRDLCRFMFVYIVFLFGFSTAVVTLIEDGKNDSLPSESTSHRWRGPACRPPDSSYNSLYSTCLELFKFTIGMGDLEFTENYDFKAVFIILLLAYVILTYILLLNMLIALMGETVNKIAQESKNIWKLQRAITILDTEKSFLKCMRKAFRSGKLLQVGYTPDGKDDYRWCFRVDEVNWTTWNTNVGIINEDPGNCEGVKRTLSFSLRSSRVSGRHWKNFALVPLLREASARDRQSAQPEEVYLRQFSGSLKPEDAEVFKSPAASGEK

Q: For `CCCCC/C=C\C/C=C\C/C=C\C/C=C\CCCC(=O)NCCc1c[nH]c2ccc(O)cc12` [AA-5-HT, N-arachidonoyl-serotonin], which mechanical allodynia [1] is on record?
A: The mechanical allodynia was “totally abolished”.

Q: What about the “type of FAAH inhibition” value [2] of the same compound?
A: The value was “mixed inhibitors”.

Q: And the “less potent than URB-597 at inhibiting FAAH” value ([2]; in vitro)?
A: Its value is 100 fold.

Q: And the thermal nociceptive responses [3]?
A: Its thermal nociceptive responses is “as efficacious as URB-597”.

Q: What about the “inhibitory effect of formalin on the OFF cells of the rostral ventromedial medulla” value ([4]; supraspinal level) of the same compound?
A: Its value is “blocking the inhibitory effect of formalin”.

Q: And the “nociceptive response to formalin” value ([5]; 4 μg/rat injected into the periaqueductal grey (PAG), FIG. 2A)?
A: The value was “potently inhibited both phases”.

Q: What about the “nocifensive response to formalin” value ([5]; 1 mg/rat, s.c., injected into the paw) of the same compound?
A: The value was “selectively blocked the 2nd, inflammatory phase”.

Q: What about the “anandamide levels in the PAG” value [6] of the same compound?
A: The value was “elevated”.

Q: What about the IC50 [7] of the same compound?
A: Its IC50 is 130 nM.

Q: For `NC(=O)c1cccc(-c2cccc(OC(=O)NC3CCCCC3)c2)c1` [URB-597, reference compound], which mechanical allodynia [1] is on record?
A: The mechanical allodynia was “ineffective”.

Q: And the thermal nociceptive responses [3]?
A: The thermal nociceptive responses was “reducing thermal nociceptive responses”.

Q: For `Oc1cc2c(cc1O)CN(C(=S)NCCc1ccc(Cl)cc1)CCC2` [capsazepine, reference compound], which “effect on the action of AA-5-HT on OFF cells” value [4] is on record?
A: The value was “occluded”.

Q: And the “effect on the anti-hyperalgesic effect of AA-5-HT” value ([5]; AA-5-HT 4 μg/rat intra-PAG, AM251 (nmol/rat), capsazepine 6 nmol/rat)?
A: Its value is “occluded”.

Q: What about the “effect on the action of AA-5-HT injected into the paw” value ([5]; AA-5-HT 1 mg/rat s.c. into the paw) of the same compound?
A: Its value is “occluded”.

Q: And the IC50 [8]?
A: The IC50 was 60 nM.
